Earlier results as cited in patent US20050002962A1, “Immunostimulatory agents in botanicals” (priority 2003, published 2005).

How the values were obtained:
[1] = system: macrophages; conditions: 250 μg/ml
[2] = system: mice; conditions: mouse, in vivo

Row | Molecule | macrophage IL-1 production, of maximal E. coli LPS (10 μg/ml) [1] | macrophage interferon-β production versus maximal E. coli LPS (10 μg/ml) [1] | carbon clearance [2]
1 | arabinogalactan | 20% | equal to | –
2 | echinacoside | – | – | inactive
3 | O=C(/C=C/c1ccc(O)c(O)c1)O[C@@H](C(=O)O)[C@@H](OC(=O)/C=C/c1ccc(O)c(O)c1)C(=O)O [cichoric acid, Cichoric acid] | – | – | enhanced carbon clearance
